Laboratory results: US12129244B2, “Modulators of Mas-related G-protein receptor X2 and related products and methods” (Escient Pharmaceuticals, Inc., priority 2022, dated 2024)
pIC50: −log10 of the molar value. Values belong to the compound of their own block, whether it stands above or below them.

What was measured:
[1] = tested on: Human LAD2 cells; experiment: Mast Cell Beta-Hexosaminidase Release Assay; format: cell-based; settings: 500 nM Cortistatin-14, read-out: MRGPRX2 Antagonist Activity
Procedure: Human LAD2 cells (NIH) were maintained in an incubator at 37° C. with 5% CO2 and cultured in StemPro-34 serum-free media (Gibco 10639011) supplemented with 2 mM L-glutamine, 100 U/ml penicillin, […] streptomycin and 100 ng/ml SCF (Invitrogen PEP0860), at a concentration of 2-5×10^5 cells/mL, with hemidepletion every 1-2 weeks.
Cells were transferred to SCF-Free medium at 2.5×10^5 cells/mL and kept in an incubator overnight. On the day of the assay, cells were washed twice in Assay Buffer (final concentrations 10 mM HEPES, 137 mM NaCl, 5.6 mM D-glucose, 2.7 mM KCl, 1 mM MgCl, 1.8 mM CalCl2, 0.4 mM Na2HPO4·7H2O, 0.04% BSA, pH=7.4) and plated in a 96-well v-bottom plate at 20,000 cells per well in 80 μL Assay Buffer. Antagonist compounds solubilized at 10 mM in DMSO were diluted in Assay Buffer to 10× final desired concentrations as a 10-point curve (10 μM final top concentration with 1:3 serial dilutions) and 10 μL added per well. Plates were then incubated for 1 hour at 37° C. Agonists were diluted in Assay Buffer to 10× desired concentrations and 10 μL of the appropriate agonist added to each well. The final concentration of Cortistatin-14 (Tocris 3374) used in antagonist assays was 500 nM. Final concentrations of DMSO were kept consistent across the plate. Plates were then incubated in a warm air oven for 30 minutes at 37° C., followed by centrifugation at 4° C. for 5 minutes at 450×g. 50 μL supernatant from each well was then transferred to a 96-well flat bottom plate containing 100 μL substrate solution per well (3.5 mg/mL p-Nitrophenyl-N-acetyl-β-D-glucosaminide (Sigma 487052) in Citrate Buffer containing a final concentration of 40 mM Citric Acid, 20 mM Na2HPO4·7H2O, pH=4.5). To the cell pellets left in the remaining assay buffer, 150 μL 0.1% Triton-X-100 was then added to each well, resuspended by pipetting up and down, and 50 μL cell lysates transferred to a second 96-well flat bottom plate containing 100 μL substrate solution per well. Plates containing transferred supernatant and cell lysates were then incubated in a warm air oven for 90 minutes at 37° C. After incubation, 50 μL of 400 mM Glycine buffer (pH 10.7) was added into each well and the plate was read on a Molecular Devices SpectraMax iD5 plate reader (absorbance at 405 nm with reference filter at 620 nm). After background subtraction, the percentage degranulation (percent beta-hexosaminidase release) was calculated as 100×(supernatant values)/(supernatant+lysate values), followed by analysis using GraphPad Prism software to calculate an IC50 value for each compound.
The activity ranges are denoted as follows: “+++++” denotes antagonist activity <100 nM; “++++” denotes antagonist activity between 100 and 500 nM; “+++” denotes activity between 501 and 1000 nM; “++” denotes activity between 1001 and 2500 nM; and “+” denotes activity >2500 nM.

[2] = Mouse Pharmacokinetics Studies (50 mg/kg oral gavage, plasma LC-MS/MS); format: in vivo; settings: Male C57BL/6 mice, non-fasted; for AUC(0-t) / Cmax / Tmax: mouse; for Tmax: read-out: PK: Tmax
Procedure: Compounds were formulated in 5% DMSO, 5% Solutol, and 90% PBS without Ca and Mg (pH 7.4) at a concentration of 5 mg/mL. Male C57BL/6 mice (n=3/compound) were administered a 50 mg/kg dose of each compound by oral gavage under a non-fasted condition. Blood samples were collected via the saphenous vein onto K2-EDTA at 0.25, 0.5, 1, 2, 4, 8 and 24 hours after dosing, and plasma was prepared and stored at −80° C. until analysis. Plasma sample preparation for analysis was done by protein precipitation using acetonitrile (including Verapamil as an internal standard) followed by centrifugation. Compound concentrations were determined in extracted plasma using LC-MS/MS relative to a 12-point standard curve covering the 1 to 4000 nM range. Non-compartmental analysis using Phoenix WinNonlin was used to estimate pharmacokinetic parameters including area under the curve, clearance, and half-life. The administered dose was confirmed by analysis of residual dosing material by UPLC-UV relative to a single point calibration sample.

[3] = target: T1, human MRGPRX2 (Homo sapiens, UniProt Q96LB1); experiment: MRGPRX2 activity: IP-One HTRF antagonist assay in CHO cells versus Cortistatin-14; format: cell-based; settings: CHO cells stably expressing human MRGPRX2; versus 0.3 uM Cortistatin-14 agonist; IP-1 HTRF
T1 construct: expressed in transfected cells
T1 sequence (Q96LB1 1-330): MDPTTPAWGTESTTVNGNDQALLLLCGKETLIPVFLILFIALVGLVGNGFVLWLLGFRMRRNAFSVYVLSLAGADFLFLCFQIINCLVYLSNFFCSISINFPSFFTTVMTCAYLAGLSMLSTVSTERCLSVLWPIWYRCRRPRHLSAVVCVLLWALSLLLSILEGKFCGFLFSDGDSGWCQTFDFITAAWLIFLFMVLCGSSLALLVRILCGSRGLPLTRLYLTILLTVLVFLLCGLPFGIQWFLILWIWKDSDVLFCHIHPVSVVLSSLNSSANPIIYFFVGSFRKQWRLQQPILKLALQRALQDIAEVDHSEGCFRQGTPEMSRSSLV
Procedure: CHO cells stably transfected to express human MRGPRX2 were maintained in an incubator at 37° C. with 5% CO2 and grown in F12 (HAM) media with 10% fetal bovine serum (FBS), 1% Glutamax, 1% penicillin/streptomycin, 800 μg/mL Geneticin (G418), and 300 μg/mL Hygromycin B.
Cells were plated in a 384-well assay plate at 20,000 cells per well in 12 μL of Opti-MEM and kept in an incubator overnight. On the day of the assay, compounds solubilized at 10 mM in DMSO were added as a 10-point curve (30 uM final top concentration with 1:3 serial dilutions) using a Tecan D300E digital dispenser. Agonists were diluted in assay buffer (final concentrations of 5.7 mM Tris-HCl, 43 mM NaCl, 50 mM LiCl, pH=8) and 2 μL of the agonist Cortistatin-14 (CPC Scientific, catalog CORT-002) are added to each well. Final concentrations of agonists were 0.3 μM Cortistatin. Final concentrations of DMSO were kept consistent across the plate. Plates were incubated in the dark for 1 h at 37° C. and then for 1 h at room temperature. IP-1 standards and HTRF detection reagents were added according to the IP-One-Gq Kit purchased from Cisbio (part number 62IPAPEJ) and incubated in the dark for 1 h at room temperature. The plate was read on a Molecular Devices SpectraMax iD5 plate reader. The HTRF ratio was calculated from the raw data and graphed using GraphPad Prism to calculate an IC50 value for each compound.
The activity ranges are denoted as follows: “+++++” denotes antagonist activity <100 nM; “++++” denotes antagonist activity between 100 and 500 nM; “+++” denotes activity between 501 and 1000 nM; “[…]” denotes activity between 1001 and 2500 nM; and “+” denotes activity >2500 nM

Structure (SMILES): O=C(N[C@@H]1CCC[C@H](Nc2cc(C(F)(F)F)nc3ccc(Cl)cc23)C1)c1ccc(F)nc1 [4-411]
pIC50 [1]: > 7.00

Structure (SMILES): COc1ccc(C(=O)N[C@@H]2CCC[C@H](Nc3cc(C(F)(F)F)nc4ccc(F)cc34)C2)cc1 [Example 1-4]
AUC 0-24 [2]: 120 µM·h
AUC(0-t) [2]: 120 µM·h
Cmax [2]: 8.6 µM
Tmax [2]: 6.7 h

Structure (SMILES): Nc1ccc(C(=O)N[C@@H]2CCC[C@H](Nc3cc(C(F)(F)F)nc4ccc(Cl)cc34)C2)cn1 [Example 3-19]
pIC50 [3]: > 7.00
AUC 0-24 [2]: 220 µM·h
AUC(0-t) [2]: 220 µM·h
Cmax [2]: 46 µM
Tmax [2]: 0.83 h

Structure (SMILES): CCS(=O)(=O)Nc1cccc(C(=O)N[C@@H]2CCC[C@H](Nc3cc(C(F)(F)F)nc4ccc(Cl)cc34)C2)c1 [Example 4-241]
pIC50 [1]: > 7.00

Structure (SMILES): CC(=O)Nc1cccc(C(=O)N[C@@H]2CCC[C@H](Nc3cc(C(F)(F)F)nc4ccc(F)cc34)C2)c1 [Example 4-306]
pIC50 [1]: > 7.00

Structure (SMILES): CC(C)S(=O)(=O)Nc1ccc(F)c(C(=O)N[C@@H]2CCC[C@H](Nc3cc(C(F)(F)F)nc4ccc(F)cc34)C2)c1F [Example 4-318]
pIC50 [1]: 6.00 to 6.30

Structure (SMILES): CCn1cc(C(=O)N[C@@H]2CCC[C@H](Nc3cc(C(F)(F)F)nc4ccc(Cl)cc34)C2)cn1 [Example 4-366]
AUC 0-24 [2]: 290 µM·h
AUC(0-t) [2]: 290 µM·h
Cmax [2]: 44 µM
Tmax [2]: 1 h

Structure (SMILES): O=C(N[C@@H]1CCC[C@H](Nc2cc(C(F)(F)F)nc3ccc(Cl)cc23)C1)c1cnn(C(F)F)c1 [Example 4-399]
AUC 0-24 [2]: 230 µM·h
AUC(0-t) [2]: 230 µM·h
Cmax [2]: 19 µM
Tmax [2]: 3.7 h

Structure (SMILES): Cc1nn(C(C)C)cc1C(=O)N[C@@H]1CCC[C@H](Nc2cc(C(F)(F)F)nc3ccc(Cl)cc23)C1 [Example 4-402]
pIC50 [3]: > 7.00
AUC 0-24 [2]: 150 µM·h
AUC(0-t) [2]: 150 µM·h
Cmax [2]: 14 µM
Tmax [2]: 2 h

Structure (SMILES): Cc1ccc(C(=O)N[C@@H]2CCC[C@H](Nc3cc(C(F)(F)F)nc4ccc(Cl)cc34)C2)cn1 [Example 4-403]
pIC50 [3]: > 7.00
AUC 0-24 [2]: 130 µM·h
AUC(0-t) [2]: 130 µM·h
Cmax [2]: 15 µM
Tmax [2]: 2.3 h

Structure (SMILES): Nc1ncccc1C(=O)N[C@@H]1CCC[C@H](Nc2cc(C(F)(F)F)nc3ccc(Cl)cc23)C1 [Example 4-409]
pIC50 [3]: > 7.00
AUC 0-24 [2]: 280 µM·h
AUC(0-t) [2]: 280 µM·h
Cmax [2]: 25 µM
Tmax [2]: 2.7 h

Structure (SMILES): O=C(N[C@@H]1CCC[C@H](Nc2cc(C(F)(F)F)nc3ccc(Cl)cc23)C1)c1c[nH]nc1C(F)F [Example 4-511]
pIC50 [3]: > 7.00

Structure (SMILES): Cc1c(C(=O)N[C@@H]2CCC[C@H](Nc3cc(C(F)(F)F)nc4ccc(Cl)cc34)C2)cnn1C1CCNCC1 [Example 19, N-((1R,3S)-3-((6-chloro-2-(trifluoromethyl)quinolin-4-yl)amino)cyclohexyl)-5-methyl-1-(piperidin-4-yl)-1H-pyrazole-4-carboxamide]
pIC50 [3]: > 7.00

Structure (SMILES): CC(C)(C)OC(=O)N1CC[C@@H](n2cc(C(=O)N[C@@H]3CCC[C@H](Nc4cc(C(F)(F)F)nc5ccc(Cl)cc45)C3)cn2)C1 [Example 40, tert-butyl (R)-3-(4-(((1R,3S)-3-((6-chloro-2-(trifluoromethyl)quinolin-4-yl)amino)cyclohexyl)carbamoyl)-1H-pyrazol-1-yl)pyrrolidine-1-carboxylate]
pIC50 [3]: > 7.00

Structure (SMILES): CC(C)C(=O)N1CCN(C(=O)N[C@@H]2CCC[C@H](Nc3cc(C(F)(F)F)nc4ccc(Cl)cc34)C2)CC1 [Example 44, N-((1R,3S)-3-((6-chloro-2-(trifluoromethyl)quinolin-4-yl)amino)cyclohexyl)-4-isobutyrylpiperazine-1-carboxamide]
pIC50 [1]: > 7.00

Structure (SMILES): CC1(F)CN(C(=O)N[C@@H]2CCC[C@H](Nc3cc(C(F)(F)F)nc4ccc(Cl)cc34)C2)C1 [Example 45, N-((1R,3S)-3-((6-chloro-2-(trifluoromethyl)quinolin-4-yl)amino)cyclohexyl)-3-fluoro-3-methylazetidine-1-carboxamide]
pIC50 [1]: 6.30 to 7.00

Structure (SMILES): Cc1nc2c(s1)CN(C(=O)N[C@@H]1CCC[C@H](Nc3cc(C(F)(F)F)nc4ccc(Cl)cc34)C1)CC2 [Example 46, N-((1R,3S)-3-((6-chloro-2-(trifluoromethyl)quinolin-4-yl)amino)cyclohexyl)-2-methyl-6,7-dihydrothiazolo[5,4-c]pyridine-5(4H)-carboxamide]
pIC50 [3]: > 7.00

Results, then the compound that gave them:

pIC50 [3]: > 7.00
Structure (SMILES): Cc1c(C(=O)N[C@@H]2CCC[C@H](Nc3cc(C(F)(F)F)nc4ccc(Cl)cc34)C2)ccn1CCF [Example 5-1]

pIC50 [1]: > 7.00
Structure (SMILES): Cc1cc(C(=O)N[C@@H]2CCC[C@H](Nc3cc(C(F)(F)F)nc4ccc(Cl)cc34)C2)cn1CCF [Example 5-2]

pIC50 [1]: > 7.00
Structure (SMILES): N#CCn1cc(C(=O)N[C@@H]2CCC[C@H](Nc3cc(C(F)(F)F)nc4ccc(Cl)cc34)C2)c(Cl)n1 [Example 5-3]

pIC50 [3]: > 7.00
Structure (SMILES): Cc1c(C(=O)N[C@@H]2CCC[C@H](Nc3cc(C(F)(F)F)nc4ccc(Cl)cc34)C2)ccn1CC(F)F [Example 5-5]

pIC50 [3]: > 7.00
Structure (SMILES): CC(C)(C)OC(=O)N1CCC[C@@H](n2cc(C(=O)N[C@@H]3CCC[C@H](Nc4cc(C(F)(F)F)nc5ccc(Cl)cc45)C3)cn2)C1 [Example 5-13]

pIC50 [3]: > 7.00
Structure (SMILES): N#Cc1nn(CCF)cc1C(=O)N[C@@H]1CCC[C@H](Nc2cc(C(F)(F)F)nc3ccc(Cl)cc23)C1 [Example 5-31]

pIC50 [3]: > 7.00
Structure (SMILES): O=C(N[C@@H]1CCC[C@H](Nc2cc(C(F)(F)F)nc3ccc(Cl)cc23)C1)N1CCCC1 [Example 8-3]

pIC50 [3]: > 7.00
Structure (SMILES): Cn1cc2c(n1)CCN(C(=O)N[C@@H]1CCC[C@H](Nc3cc(C(F)(F)F)nc4ccc(Cl)cc34)C1)C2 [Example 8-16]
